Laboratory results taken from patent publication US4341786A, “Pharmaceutical compositions and method of producing central alpha1 agonist activity utilizing octahydrobenzo[f]quinoline compounds” (SmithKline Corporation, priority 1981, dated 1982).
Counter-ions that a name gives are not always drawn.

Target: postjunctional alpha1 receptors
Test: postjunctional alpha1 agonist activity (EC50), isolated segment of rabbit ear artery
Conditions: smooth muscle tension, dose producing 50% of the maximum response (norepinephrine)
Excerpt: The assay procedure is described by Steinsland et al. J. Pharm. Exp. Ther. 184:346-356, 1973. Briefly, this test comprises sacrificing a white rabbit and removing the central ear artery. The artery is cannulated at both ends and placed in a perfusion chamber. The artery is simultaneously perfused intraluminally and superfused extraluminally with Krebs solution. The compound to be tested can be administered by means of either the intraluminal or extraluminal flow. The sympathetic nerve is excited at four minute intervals by field stimulation. The selective alpha1 agonist activity is measured as the ability to increase perfusion pressure (mm Hg.) without inhibiting response to sympathetic nerve stimulation.
A quantitation of postjunctional alpha1 agonist activity (EC50) is determined for compounds showing activity in the above test. This is accomplished by employing an isolated segment of rabbit ear artery. The segment is mounted in a chamber superfused with oxygenated Krebs solution. The segment is suspended between two tungsten wires, one attached to the chamber, the other to a force-displacement transducer so that smooth muscle tension can be measured directly. Before administration of the test drug, norepinephrine is administered in increasing concentration (10^-8 M to 3×10^-6 M) to determine maximum response of the artery. […]

Q: With `COc1ccc(OC)c2c1CCC1NCCCC21` (stereo not shown) [7,10-dimethoxy-1,2,3,4,4a,5,6,10-b-octahydro-benzo[f]quinoline hydrochloride] as the compound, how does the EC50 read?
A: 190 nM
